The test system of data set [1] is Beagle dogs. In words: Intraocular pressure in dogs (pneumatonometry). The data set is classed as in vivo. The note with it: dog, topical 25 μL drop, Conc. 0.03%, 5 day study. As for the experimental part:
(§1) • Intraocular Pressure (IOP) Intraocular pressure studies in dogs involved pneumatonometry performed in conscious, Beagle dogs of both sexes (10–15 kg). The animals remained conscious throughout the study and were gently restrained by hand. Drugs were administered topically to one eye as a 25 μL volume drop, the other eye received 25 μL vehicle (0.1% polysorbate 80:10 mM TRIS) as a control. Proparacaine (0.1%) was used for corneal anesthesia during tonometry. Intraocular pressure was determined just before drug administration and at 2, 4 and 6 hr thereafter on each day of the 5 day study. Drug was administered immediately after the first IOP reading. • An analogous procedure was carried out with cynomolgus monkeys with measurements at 2, 4, 6, and 24 hours after a single dose. • Pupil Diameter • Dog pupil diameter was measured using an optistick (a mm ruler which included half-circle references of standard widths (mm) for reference. Gently restraining the dog by hand, pupil diameter was determined by matching a half-circle to the pupil in normal room light. In dogs with very dark pupils a specialized penlight was used, but only very briefly to avoid pupil constriction. Pupil diameter was measured at the same time as IOP and hyperemia. • Ocular Surface Hyperemia • Ocular surface hyperemia was visually assessed and scored according to a system typically used clinically.

In data set [2] the test system is Beagle dogs. In words: Ocular surface hyperemia in dogs. The data set is classed as in vivo. Conditions: dog, topical, Conc. 0.03%; score: trace 0.5, mild 1, moderate 2, severe 3. As for the experimental part:
as §1
• Ocular surface hyperemia was evaluated at the same time points as intraocular pressure measurement. It should be noted that untreated dog eyes frequently have a pink/red tone. Thus, values of trace or even mild are not necessarily out of the normal range.

Data set [3] deals with T1, HEP3D (Homo sapiens, UniProt P43115).
T1 sequence (P43115 1-374 isoform P43115-4): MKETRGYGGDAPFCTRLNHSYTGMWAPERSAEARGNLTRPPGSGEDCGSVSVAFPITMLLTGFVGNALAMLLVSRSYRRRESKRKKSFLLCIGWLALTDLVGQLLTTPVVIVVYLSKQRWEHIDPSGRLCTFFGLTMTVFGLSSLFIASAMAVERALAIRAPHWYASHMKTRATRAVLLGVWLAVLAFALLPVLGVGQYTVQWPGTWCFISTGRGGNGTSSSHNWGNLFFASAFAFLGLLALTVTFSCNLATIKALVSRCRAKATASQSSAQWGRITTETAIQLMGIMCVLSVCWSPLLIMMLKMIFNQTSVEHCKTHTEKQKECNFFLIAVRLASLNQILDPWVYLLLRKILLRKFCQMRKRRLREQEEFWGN
Nature of the data set: Radioligand binding, EP3 receptor. The note with it: [3H]PGE2 5 nM. The procedure: (§2) HEK-293 cells stably expressing the human or feline FP receptor, or EP1, EP2, or EP4 receptors were washed with TME buffer, scraped from the bottom of the flasks, and homogenized for 30 sec using a Brinkman PT 10/35 polytron. TME buffer was added to achieve a final 40 ml volume in the centrifuge tubes (the composition of TME is 100 mM TRIS base, 20 mM MgCl2, […]; 10N HCl is added to achieve a pH of 7.4).
(§3) The cell homogenate was centrifuged at 19000 r.p.m. for 20 min at 4° C. using a Beckman Ti-60 rotor. The resultant pellet was resuspended in TME buffer to give a final 1 mg/ml protein concentration, as determined by Biorad assay. Radioligand binding competition assays vs. [^3H-]17-phenyl PGF2α (5 nM) were performed in a 100 μl volume for 60 min. Binding reactions were started by adding plasma membrane fraction. The reaction was terminated by the addition of 4 ml ice-cold TRIS-HCl buffer and rapid filtration through glass fiber GF/B filters using a Brandel cell harvester. The filters were washed 3 times with ice-cold buffer and oven dried for one hour. Non-specific binding was determined with 10 uM unlabeled 17-phenyl PGF2α.
(§4) [^3H-] PGE2 (5 nM; specific activity 180 Ci mmol) was used as the radioligand for EP receptors. Binding studies employing EP1, EP2, EP3, EP4 were performed in duplicate in at least three separate experiments. A 200 μl assay volume was used. Incubations were for 60 min at 25° C. and were terminated by the addition of 4 ml of ice-cold 50 mM TRIS-HCl, followed by rapid filtration through Whatman GF/B filters and three additional 4 ml washes in a cell harvester (Brandel). Non-specific binding determined with 10^−5M of unlabeled PGE2.

The target of data set [4] is T2, HEP4 (Homo sapiens, UniProt P35408).
T2 construct: expressed in transfected cells; host or cells: HEK-293
Nature of the data set: Radioligand binding, EP4 receptor. The note with it: [3H]PGE2 5 nM, HEK-293 membranes. The procedure:
as §2, §3, §4

Data set [5] concerns the target T3, hEP3A/Gqi5 (Homo sapiens, UniProt P43115).
T3 construct: expressed in transfected cells; host or cells: HEK-293 (EBNA)
T3 sequence (P43115 1-390): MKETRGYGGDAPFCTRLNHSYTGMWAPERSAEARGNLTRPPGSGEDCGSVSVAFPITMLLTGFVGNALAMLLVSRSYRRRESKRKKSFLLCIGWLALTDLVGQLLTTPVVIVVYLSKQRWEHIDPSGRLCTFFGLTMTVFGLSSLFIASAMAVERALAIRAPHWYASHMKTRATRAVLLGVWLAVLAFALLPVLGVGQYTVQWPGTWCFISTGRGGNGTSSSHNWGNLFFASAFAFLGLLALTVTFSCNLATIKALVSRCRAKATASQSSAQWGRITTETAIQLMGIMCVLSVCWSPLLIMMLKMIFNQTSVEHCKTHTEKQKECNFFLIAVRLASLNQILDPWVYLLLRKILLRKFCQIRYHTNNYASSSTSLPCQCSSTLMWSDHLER
Nature of the data set: FLIPR calcium signal, hEP3A/Gqi5. The data set is classed as cell-based. The note with it: HEK-293 (EBNA) cells, read-out: FUNCTIONAL EC50 HEP3A. The procedure:
(§5) HEK-293 (EBNA) cells, stably expressing one type or subtype of recombinant human prostaglandin receptors (prostaglandin receptors expressed: hDP/Gqs5; hEP1; hEP2/Gqs5; hEP3A/Gqi5; hEP4/Gqs5; hFP; hIP; hTP), were cultured in 100 mm culture dishes in high-glucose DMEM medium containing 10% fetal bovine serum, 2 mM 1-glutamine, 250 μg/ml geneticin (G418) and 200 μg/ml hygromycin B as selection markers, and 100 units/ml penicillin G, 100 μg/ml streptomycin and 0.25 μg/ml amphotericin B. • (b) Calcium Signal Studies on the FLIPR™
(§6) Cells were seeded at a density of 5×10^4 cells per well in Biocoat® Poly-D-lysine-coated black-wall, clear-bottom 96-well plates (Becton-Dickinson) and allowed to attach overnight in an incubator at 37° C. Cells were then washed two times with HBSS-HEPES buffer (Hanks Balanced Salt Solution without bicarbonate and phenol red, 20 mM HEPES, pH 7.4) using a Denley Cellwash plate washer (Labsystems). After 45 minutes of dye-loading in the dark, using the calcium-sensitive dye Fluo-4 AM at a final concentration of 2 μM, plates were washed four times with HBSS-HEPES buffer to remove excess dye leaving 100 μl in each well. Plates were re-equilibrated to 37° C. for a few minutes.
(§7) Cells were excited with an Argon laser at 488 nm, and emission was measured through a 510–570 nm bandwidth emission filter (FLIPR™, Molecular Devices, Sunnyvale, Calif.). Drug solution was added in a 50 μl volume to each well to give the desired final concentration. The peak increase in fluorescence intensity was recorded for each well. On each plate, four wells each served as negative (HBSS-HEPES buffer) and positive controls (standard agonists: BW245C (hDP); PGE2 (hEP1; hEP2/Gqs5; hEP3A/Gqi5; hEP4/Gqs5); PGF2α (hFP); carbacyclin (hIP); U46619 (hTP), depending on receptor). The peak fluorescence change in each drug-containing well was then expressed relative to the controls.
(§8) Compounds were tested in a high-throughput (HTS) or concentration-response (CoRe) format. In the HTS format, forty-four compounds per plate were examined in duplicates at a concentration of 10^−5 M. To generate concentration-response curves, four compounds per plate were tested in duplicates in a concentration range between 10^−5 and 10^−11 M. The duplicate values were averaged. In either, HTS or CoRe format each compound was tested on at least 3 separate plates using cells from different passages to give an n≧3.

Data set [6] has as its target T4, hEP4/Gqs5 (Homo sapiens, UniProt P35408).
T4 construct: expressed in transfected cells; host or cells: HEK-293 (EBNA)
In words: FLIPR calcium signal, hEP4/Gqs5. The class given is cell-based. The note with it: HEK-293 (EBNA) cells, read-out: FUNCTIONAL EC50 HEP4. The procedure: as §5, §6, §7, §8

The target in data set [7] is T5, hTP (Homo sapiens, UniProt P21731).
T5 construct: expressed in transfected cells; host or cells: HEK-293 (EBNA)
T5 sequence (P21731 1-343): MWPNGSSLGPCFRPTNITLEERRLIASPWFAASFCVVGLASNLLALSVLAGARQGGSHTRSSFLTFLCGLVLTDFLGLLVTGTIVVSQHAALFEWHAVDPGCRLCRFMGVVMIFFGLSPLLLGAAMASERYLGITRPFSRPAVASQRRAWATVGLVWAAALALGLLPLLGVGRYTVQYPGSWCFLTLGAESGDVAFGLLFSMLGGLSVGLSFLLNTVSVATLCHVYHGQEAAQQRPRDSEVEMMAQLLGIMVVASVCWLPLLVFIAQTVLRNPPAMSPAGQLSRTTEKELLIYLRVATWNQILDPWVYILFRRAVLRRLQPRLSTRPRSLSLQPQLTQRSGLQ
In words: FLIPR calcium signal, hTP. The class given is cell-based. Conditions: HEK-293 (EBNA) cells, read-out: FUNCTIONAL EC50 HTP. The procedure:
as §5, §6, §7, §8

Data set [8] addresses T6, HEP2 (Homo sapiens, UniProt P43116).
T6 construct: expressed in transfected cells; host or cells: HEK-293
In words: Radioligand binding, EP2 receptor. The note with it: [3H]PGE2 5 nM, HEK-293 membranes. As for the experimental part: as §2, §3, §4

pEC50, pIC50: −log10 of the molar value.

The pIC50 is the IC50 on a negative log10 scale, so that one unit is a factor of ten. A word on the pEC50: it is the EC50 on a negative log10 scale, so that one unit is a factor of ten.

T4 sequence (P35408 whole entry): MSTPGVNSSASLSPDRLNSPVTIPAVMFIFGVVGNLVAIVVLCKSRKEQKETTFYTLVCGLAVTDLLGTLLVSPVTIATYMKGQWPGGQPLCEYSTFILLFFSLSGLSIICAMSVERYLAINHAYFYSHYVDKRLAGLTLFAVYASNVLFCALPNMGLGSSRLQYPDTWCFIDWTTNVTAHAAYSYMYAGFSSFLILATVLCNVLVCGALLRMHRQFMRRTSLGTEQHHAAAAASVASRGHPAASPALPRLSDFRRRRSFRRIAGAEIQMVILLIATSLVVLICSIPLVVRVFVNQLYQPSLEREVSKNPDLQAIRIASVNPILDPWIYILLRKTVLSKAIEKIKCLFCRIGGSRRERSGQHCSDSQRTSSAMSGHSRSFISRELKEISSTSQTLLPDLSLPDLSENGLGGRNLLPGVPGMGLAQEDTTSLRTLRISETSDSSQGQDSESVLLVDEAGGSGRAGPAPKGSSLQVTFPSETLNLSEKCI
T2 sequence (P35408 whole entry): as above
T6 sequence (P43116 whole entry): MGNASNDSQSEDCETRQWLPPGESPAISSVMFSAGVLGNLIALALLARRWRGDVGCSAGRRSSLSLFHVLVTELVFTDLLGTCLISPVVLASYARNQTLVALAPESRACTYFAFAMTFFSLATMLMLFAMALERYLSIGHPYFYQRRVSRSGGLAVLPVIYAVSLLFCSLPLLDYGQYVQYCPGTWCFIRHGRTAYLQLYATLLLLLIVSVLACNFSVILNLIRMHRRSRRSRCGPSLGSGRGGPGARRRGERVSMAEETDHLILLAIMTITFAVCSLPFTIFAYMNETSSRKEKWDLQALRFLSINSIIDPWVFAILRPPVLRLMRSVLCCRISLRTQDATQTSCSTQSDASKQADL

On to `CC(C)OC(=O)CSCCCS[C@H]1C(=O)C[C@@H](CO)[C@@H]1/C=C/C(O)Cc1ccccc1` (single isomer, unassigned) [Compound 150, {3-[3-Hydroxymethyl-2-(3-hydroxy-4-phenyl-but-1-enyl)-5-oxo-cyclopentylsulfanyl]-propylsulfanyl}-acetic acid isopropyl ester], for which the “Max. ΔIOP” value in data set [1] is on record as −5.5 mm Hg. The Max hyperemia in data set [2] stood at 0.9.

Consider `O=C(O)CSCCCS[C@H]1C(=O)CC[C@@H]1/C=C/C(O)Cc1ccc2ccccc2c1` (stereo partly drawn) [{3-[(1R,2R)-2-((E)-3-Hydroxy-4-naphthalen-2-yl-but-1-enyl)-5-oxo-cyclopentylsulfanyl]-propylsulfanyl}-acetic acid], for which the negative logarithm of the IC50 (pIC50) in data set [3] is less than 5.00; in data set [4], 7.59. In addition, the negative-log EC50 (pEC50) in data set [5] is less than 5.00; in data set [6], 9.40; in data set [7] it was less than 5.00.

For the compound `O=C(O)CSCCCS[C@H]1C(=O)CC[C@@H]1/C=C/C(O)CCc1cc2ccccc2s1` (stereo partly drawn) [drawing 25, {3-[(1R,2R)-2-((E)-5-Benzo[b]thiophen-2-yl-3-hydroxy-pent-1-enyl)-5-oxo-cyclopentylsulfanyl]-propylsulfanyl}-acetic acid], the figures for the pIC50 in data set [8], in data set [3] and in data set [4] were less than 5.00, less than 5.00 and 7.36, respectively. Also, the results for the pEC50 in data set [5], in data set [6] and in data set [7] were 5.71, 8.43 and less than 5.00, respectively.

For the compound `CC(O)(/C=C/[C@H]1CCC(=O)[C@@H]1SCCCSCC(=O)O)CCc1ccc2ccccc2c1` (single isomer, unassigned) [drawing 24], in data set [4], the pIC50 is 7.02. Moreover, the pEC50 in data set [5] is less than 5.00; in data set [6] it was 8.74; in data set [7], less than 5.00.

Regarding `O=C(O)CSCCCS[C@H]1C(=O)CC[C@@H]1/C=C/C(O)CCc1cc2ccccc2s1` (stereo partly drawn) [drawing 26, {3-[(1R,2R)-2-((E)-5-Benzo[b]thiophen-2-yl-3-hydroxy-pent-1-enyl)-5-oxo-cyclopentylsulfanyl]-propylsulfanyl}-acetic acid], the negative logarithm of the IC50 (pIC50) in data set [8] was less than 5.00; in data set [3], less than 5.00; in data set [4] it was 7.35. Also, the pEC50 in data set [6] is 8.62.

For `O=C(O)CSCCCS[C@H]1C(=O)CC[C@@H]1/C=C/C(O)Cc1ccccc1` (single isomer, unassigned) [drawing 48], the negative logarithm of the IC50 (pIC50) in data set [3] was less than 5.00; in data set [4] it was 7.96. For the same compound, the negative-log EC50 (pEC50) in data set [5] and in data set [7] was less than 5.00 throughout.

With `COC(=O)CSCCCS[C@H]1C(=O)CC[C@@H]1/C=C/C(O)CCc1cc2ccccc2s1` (stereo partly drawn) [drawing 28, {3-[(1R,2R)-2-((E)-5-Benzo[b]thiophen-2-yl-3-hydroxy-pent-1-enyl)-5-oxo-cyclopentylsulfanyl]-propylsulfanyl}-acetic acid methyl ester], the negative-log IC50 (pIC50) is less than 5.00 in data set [8] and 6.52 in data set [4]. Besides, the pEC50 in data set [6] is 7.96.

Consider `O=C(O)CSCCCS[C@H]1C(=O)CC[C@@H]1/C=C/C(O)CCc1ccc2ccccc2c1` (single isomer, unassigned) [drawing 36], for which the negative logarithm of the IC50 (pIC50) is 5.09 in data set [8] and 6.85 in data set [4]. The negative-log EC50 (pEC50) in data set [6] is 9.00.

On to `COC(=O)CSCCCS[C@H]1C(=O)CC[C@@H]1/C=C/C(O)Cc1ccccc1` (single isomer, unassigned) [drawing 46], for which the pIC50 in data set [3] is less than 5.00; in data set [4], 7.72. In addition, the pEC50 is less than 5.00 in data set [5], 10.05 in data set [6] and less than 5.00 in data set [7].

Consider `CC(O)(/C=C/[C@H]1CCC(=O)[C@@H]1SCCCSCC(=O)O)CCc1ccc2ccccc2c1` (single isomer, unassigned) [drawing 33], for which, in data set [4], the negative-log IC50 (pIC50) is 6.70. In addition, the pEC50 in data set [6] was 7.70; in data set [7] it was less than 5.00.
